The values below come from patent US20250082602A1, “OPHTHALMIC COMPOSITION CONTAINING RECOFLAVONE FOR THE TREATMENT OF DRY EYE DISEASE” (GL PHARMTECH CORP., priority 2021, published 2025).

Read-outs that look alike come from different tables or passages of the source.

Series [1] is described as follows: Solubility in water. Format: physicochemical. The settings on record: low solubility at low pH, increases with pH.
Series [2] concerns human keratoconjunctival epithelial cells. Particulars: cited from earlier work.
The test system of series [3] is rabbit eyes. Put plainly: Drug distribution in eye tissues after eye drop administration to rabbit eyes. It counts as in vivo. The settings on record: 3% eye drop administered to rabbit eyes (data not shown). An excerpt:
It has a property with low solubility at low pH. As the pH increases, it is ionized and its solubility increases.

Series [4] can be described thus: Cell permeability of dissolved recoflavone. Format: in vitro ADME. The settings on record: dissolved state, high degree of ionization.
The conditions of series [5]: cited from earlier work.

With `COc1ccc(-c2cc(=O)c3c(OC)cc(OCC(=O)O)cc3o2)cc1OC` [recoflavone, 2-((2-(3,4-dimethoxyphenyl)-5-methoxy-4-oxo-4H-chromen-7-yl)oxy) acetic acid], the Solubility in water result in series [1] is listed as “practically insoluble in water”. Further, the “Thickness of the mucin layer” value in series [2] (100 μM solution of the active ingredient) was “significantly increased”. The “Mucin proteins by Western blot analysis” value in series [2] (Western blot) is “MUC5AC only had a tendency to increase”. The “Mucin expression MUC1, MUC4, MUC16 and MUC5AC by real-time PCR” value in series [2] (real-time PCR) is “tendency to increase significantly for four hours and then decreased rapidly”. Also, the “Drug distribution in each tissue of eye with time” value in series [3] is “rarely distributed in the tissues located inside the eye and mainly distributed in the surrounding tissues outside of the eye”. Besides, the Cell permeability result in series [4] was “poor cell permeability”. Also, the Hygroscopicity result is “stable without hygroscopicity” in series [5] (form of a hydrate) and “has hygroscopicity” in series [5] (form of an anhydride).
